Experimental data: ChEMBL document CHEMBL1139192, “Novel bis(indolyl)maleimide pyridinophanes that are potent, selective inhibitors of glycogen synthase kinase-3” (Bioorg Med Chem Lett, 2007)

How the values were obtained:
Homo sapiens [1] = species on record: Homo sapiens; experiment: Residual activity of human CDK2/Cyclin A at 1 uM relative to control
[2] = Inhibition of MEK1 at 1 uM relative to control; values are per cent of control; conditions: Homo sapiens
[3] = target: Tyrosine-protein kinase Lyn (Homo sapiens) (UniProt P07948); experiment: Inhibition of human Lyn at 1 uM relative to control; values are per cent of control
[4] = target: Epidermal growth factor receptor (Homo sapiens) (UniProt P00533); experiment: Inhibition of human EGFR at 1 uM relative to control; values are per cent of control
Chain of Epidermal growth factor receptor (Homo sapiens) (P00533 whole entry): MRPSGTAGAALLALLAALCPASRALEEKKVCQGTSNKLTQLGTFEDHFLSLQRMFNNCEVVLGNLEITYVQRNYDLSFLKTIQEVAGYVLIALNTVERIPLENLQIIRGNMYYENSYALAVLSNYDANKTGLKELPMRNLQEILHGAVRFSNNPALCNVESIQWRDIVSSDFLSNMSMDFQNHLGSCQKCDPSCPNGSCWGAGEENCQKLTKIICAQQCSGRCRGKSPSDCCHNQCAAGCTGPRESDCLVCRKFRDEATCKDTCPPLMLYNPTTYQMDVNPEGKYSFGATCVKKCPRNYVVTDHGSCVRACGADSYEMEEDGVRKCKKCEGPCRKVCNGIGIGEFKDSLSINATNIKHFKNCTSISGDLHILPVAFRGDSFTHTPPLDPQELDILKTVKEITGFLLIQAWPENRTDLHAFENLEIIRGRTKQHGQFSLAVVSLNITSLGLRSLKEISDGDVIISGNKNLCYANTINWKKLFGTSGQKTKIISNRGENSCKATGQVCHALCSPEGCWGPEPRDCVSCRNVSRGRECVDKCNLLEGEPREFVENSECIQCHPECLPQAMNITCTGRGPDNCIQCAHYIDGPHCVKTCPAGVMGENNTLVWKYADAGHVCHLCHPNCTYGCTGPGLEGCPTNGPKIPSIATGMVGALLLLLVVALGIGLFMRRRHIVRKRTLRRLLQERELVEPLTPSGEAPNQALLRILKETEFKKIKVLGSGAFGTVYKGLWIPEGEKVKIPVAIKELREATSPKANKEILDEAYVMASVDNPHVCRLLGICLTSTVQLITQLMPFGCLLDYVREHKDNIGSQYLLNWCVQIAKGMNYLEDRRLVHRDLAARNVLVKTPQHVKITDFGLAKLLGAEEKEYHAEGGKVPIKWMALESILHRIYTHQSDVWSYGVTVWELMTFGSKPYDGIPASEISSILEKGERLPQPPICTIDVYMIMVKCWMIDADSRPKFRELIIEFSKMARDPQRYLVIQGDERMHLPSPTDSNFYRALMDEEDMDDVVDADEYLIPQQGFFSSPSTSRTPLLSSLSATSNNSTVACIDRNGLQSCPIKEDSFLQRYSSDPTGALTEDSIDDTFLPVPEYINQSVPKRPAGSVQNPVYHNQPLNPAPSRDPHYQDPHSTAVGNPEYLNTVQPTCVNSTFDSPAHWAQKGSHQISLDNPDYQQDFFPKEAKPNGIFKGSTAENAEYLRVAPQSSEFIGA

[5] = target: T1, Serine/threonine-protein kinase Chk1 (Homo sapiens) (UniProt O14757); experiment: Inhibition of human CHK1 at 1 uM relative to control; values are per cent of control
T1 sequence (whole entry): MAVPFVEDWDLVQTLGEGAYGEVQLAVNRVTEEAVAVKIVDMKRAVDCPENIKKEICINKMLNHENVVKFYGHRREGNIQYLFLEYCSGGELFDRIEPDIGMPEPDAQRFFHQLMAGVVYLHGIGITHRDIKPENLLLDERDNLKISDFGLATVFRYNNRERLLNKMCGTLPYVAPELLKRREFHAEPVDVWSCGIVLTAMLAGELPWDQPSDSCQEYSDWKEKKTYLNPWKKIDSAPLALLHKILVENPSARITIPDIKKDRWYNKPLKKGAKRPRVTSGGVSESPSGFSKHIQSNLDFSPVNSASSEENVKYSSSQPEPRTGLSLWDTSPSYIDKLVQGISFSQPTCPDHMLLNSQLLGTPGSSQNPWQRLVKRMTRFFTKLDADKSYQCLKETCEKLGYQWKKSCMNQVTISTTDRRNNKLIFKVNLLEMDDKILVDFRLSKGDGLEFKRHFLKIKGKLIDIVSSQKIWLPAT

[6] = target: Protein kinase C beta type (Homo sapiens, UniProt P05771); experiment: Inhibition of human recombinant PKCbeta2
Chain of Protein kinase C beta type (P05771 whole entry): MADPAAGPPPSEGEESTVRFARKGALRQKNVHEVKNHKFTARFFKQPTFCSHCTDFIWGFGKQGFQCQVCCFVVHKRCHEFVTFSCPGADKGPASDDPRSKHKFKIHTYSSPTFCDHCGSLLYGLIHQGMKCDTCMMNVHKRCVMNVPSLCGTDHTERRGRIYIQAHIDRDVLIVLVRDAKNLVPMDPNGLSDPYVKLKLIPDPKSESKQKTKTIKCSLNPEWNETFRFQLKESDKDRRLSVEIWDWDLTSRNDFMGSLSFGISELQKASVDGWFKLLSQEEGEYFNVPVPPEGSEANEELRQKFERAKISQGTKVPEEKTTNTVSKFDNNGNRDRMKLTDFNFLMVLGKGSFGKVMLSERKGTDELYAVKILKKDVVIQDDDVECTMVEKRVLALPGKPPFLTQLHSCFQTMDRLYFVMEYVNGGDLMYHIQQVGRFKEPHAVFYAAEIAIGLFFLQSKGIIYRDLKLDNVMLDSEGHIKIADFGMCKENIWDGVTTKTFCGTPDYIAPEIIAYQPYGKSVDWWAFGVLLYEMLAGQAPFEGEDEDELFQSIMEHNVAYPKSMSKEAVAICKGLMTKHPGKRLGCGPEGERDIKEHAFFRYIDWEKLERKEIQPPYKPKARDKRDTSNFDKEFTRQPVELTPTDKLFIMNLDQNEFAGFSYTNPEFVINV

[7] = target: Tyrosine-protein kinase ZAP-70 (Homo sapiens) (UniProt P43403); experiment: Residual activity of human ZAP70 kinase at 1 uM relative to control
[8] = target: Mitogen-activated protein kinase 10 (Homo sapiens) (UniProt P53779); experiment: Inhibition of human JNK3 at 1 uM relative to control; values are per cent of control
Chain of Mitogen-activated protein kinase 10 (Homo sapiens) (P53779 whole entry): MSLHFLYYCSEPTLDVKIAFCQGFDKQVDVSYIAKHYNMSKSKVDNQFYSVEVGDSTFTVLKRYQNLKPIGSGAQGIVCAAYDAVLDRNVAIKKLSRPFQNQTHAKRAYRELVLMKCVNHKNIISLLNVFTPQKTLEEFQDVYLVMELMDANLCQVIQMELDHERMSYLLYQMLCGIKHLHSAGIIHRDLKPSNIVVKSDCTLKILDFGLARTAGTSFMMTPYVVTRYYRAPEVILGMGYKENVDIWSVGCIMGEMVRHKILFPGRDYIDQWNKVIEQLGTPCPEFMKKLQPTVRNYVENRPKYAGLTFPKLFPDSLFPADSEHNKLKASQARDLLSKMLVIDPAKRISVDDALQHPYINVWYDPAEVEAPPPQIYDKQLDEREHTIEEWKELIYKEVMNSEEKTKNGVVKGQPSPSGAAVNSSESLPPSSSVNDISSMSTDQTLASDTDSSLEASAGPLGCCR

Homo sapiens [9] = species on record: Homo sapiens; experiment: Residual activity of human PAR1B-alpha at 1 uM relative to control
[10] = target: Cyclin-dependent kinase 5/CDK5 activator 1 (Homo sapiens) (UniProt Q00535+Q15078); experiment: Inhibition of human CDK5/p35 at 1 uM relative to control; values are per cent of control
Chain of Cyclin-dependent kinase 5/CDK5 activator 1 (Homo sapiens) (Q00535 whole entry): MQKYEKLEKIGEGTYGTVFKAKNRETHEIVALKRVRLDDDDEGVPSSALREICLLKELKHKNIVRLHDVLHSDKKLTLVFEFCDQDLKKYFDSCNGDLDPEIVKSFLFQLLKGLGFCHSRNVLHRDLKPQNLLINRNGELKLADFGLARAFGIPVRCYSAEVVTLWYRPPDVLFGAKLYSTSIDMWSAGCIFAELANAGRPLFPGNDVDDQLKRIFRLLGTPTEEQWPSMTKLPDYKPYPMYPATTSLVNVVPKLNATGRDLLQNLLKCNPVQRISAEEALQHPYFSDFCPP
Chain of Cyclin-dependent kinase 5/CDK5 activator 1 (Homo sapiens) (Q15078 99-307 partner limits assumed): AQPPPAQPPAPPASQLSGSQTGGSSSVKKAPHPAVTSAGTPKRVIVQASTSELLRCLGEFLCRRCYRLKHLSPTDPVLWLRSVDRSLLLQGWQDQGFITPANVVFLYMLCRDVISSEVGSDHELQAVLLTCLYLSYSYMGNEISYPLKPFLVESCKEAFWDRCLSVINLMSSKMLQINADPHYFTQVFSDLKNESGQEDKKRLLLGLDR

[11] = target: Insulin-like growth factor 1 receptor (Homo sapiens) (UniProt P08069); experiment: Residual activity of human IGF1R at 1 uM relative to control
[12] = target: T2, Protein kinase C epsilon type (Homo sapiens) (UniProt Q02156); experiment: Residual activity of human PKCepsilon at 1 uM relative to control
T2 sequence (whole entry): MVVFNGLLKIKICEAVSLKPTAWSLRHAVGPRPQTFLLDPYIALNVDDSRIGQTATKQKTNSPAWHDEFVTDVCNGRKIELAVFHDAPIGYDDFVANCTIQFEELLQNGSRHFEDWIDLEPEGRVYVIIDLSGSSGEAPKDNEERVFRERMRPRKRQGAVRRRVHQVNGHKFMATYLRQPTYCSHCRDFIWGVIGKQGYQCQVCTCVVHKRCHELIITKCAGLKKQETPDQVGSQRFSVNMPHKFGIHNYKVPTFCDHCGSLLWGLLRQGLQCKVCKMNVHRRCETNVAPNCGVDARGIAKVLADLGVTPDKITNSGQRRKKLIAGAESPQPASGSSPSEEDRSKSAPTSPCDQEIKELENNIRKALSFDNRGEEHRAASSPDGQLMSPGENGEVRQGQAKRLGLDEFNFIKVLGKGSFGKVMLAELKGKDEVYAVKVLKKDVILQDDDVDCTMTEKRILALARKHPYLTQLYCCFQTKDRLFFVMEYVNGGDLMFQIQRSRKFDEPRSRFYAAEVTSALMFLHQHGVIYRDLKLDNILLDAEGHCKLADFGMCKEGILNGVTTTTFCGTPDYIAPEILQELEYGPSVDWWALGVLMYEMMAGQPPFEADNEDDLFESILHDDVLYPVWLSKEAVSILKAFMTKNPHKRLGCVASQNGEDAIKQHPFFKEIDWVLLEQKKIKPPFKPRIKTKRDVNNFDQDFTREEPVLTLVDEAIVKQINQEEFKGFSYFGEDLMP

[13] = target: Glycogen synthase kinase-3 alpha (Homo sapiens) (UniProt P49840); experiment: Inhibition of human GSK3alpha relative to control; values are per cent of control
Chain of Glycogen synthase kinase-3 alpha (Homo sapiens) (P49840 2-483 limits assumed): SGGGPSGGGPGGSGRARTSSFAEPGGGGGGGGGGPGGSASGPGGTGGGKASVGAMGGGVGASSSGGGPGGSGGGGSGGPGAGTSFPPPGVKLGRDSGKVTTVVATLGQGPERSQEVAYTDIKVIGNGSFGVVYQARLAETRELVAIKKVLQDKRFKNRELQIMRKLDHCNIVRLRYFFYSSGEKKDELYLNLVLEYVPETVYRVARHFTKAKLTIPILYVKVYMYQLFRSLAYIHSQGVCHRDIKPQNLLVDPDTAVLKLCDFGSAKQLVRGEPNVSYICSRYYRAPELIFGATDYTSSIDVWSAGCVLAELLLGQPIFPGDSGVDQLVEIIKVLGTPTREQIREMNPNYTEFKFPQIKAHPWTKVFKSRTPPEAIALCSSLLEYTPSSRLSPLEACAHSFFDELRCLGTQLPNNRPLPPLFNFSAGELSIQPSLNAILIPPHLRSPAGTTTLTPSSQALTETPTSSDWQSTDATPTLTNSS

[14] = target: Mitogen-activated protein kinase 1 (Homo sapiens) (UniProt P28482); experiment: Inhibition of MAPK1 at 1 uM relative to control; values are per cent of control
Chain of Mitogen-activated protein kinase 1 (Homo sapiens) (P28482 whole entry): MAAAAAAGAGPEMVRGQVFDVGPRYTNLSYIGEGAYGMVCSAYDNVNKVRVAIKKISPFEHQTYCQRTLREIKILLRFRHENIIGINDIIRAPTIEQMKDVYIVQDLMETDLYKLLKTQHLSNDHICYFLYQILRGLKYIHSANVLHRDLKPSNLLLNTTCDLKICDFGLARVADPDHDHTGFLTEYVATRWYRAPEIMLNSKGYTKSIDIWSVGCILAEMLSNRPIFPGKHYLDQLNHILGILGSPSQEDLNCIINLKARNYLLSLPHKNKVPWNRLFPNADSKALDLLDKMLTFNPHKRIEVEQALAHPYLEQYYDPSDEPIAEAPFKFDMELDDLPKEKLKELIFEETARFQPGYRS

[15] = target: Protein kinase C alpha type (Homo sapiens) (UniProt P17252); experiment: Residual activity of human PKCalpha at 1 uM relative to control
[16] = target: Tyrosine-protein kinase CSK (Homo sapiens) (UniProt P41240); experiment: Inhibition of human CSK at 1 uM relative to control; values are per cent of control
Chain of Tyrosine-protein kinase CSK (Homo sapiens) (P41240 2-450 limits assumed): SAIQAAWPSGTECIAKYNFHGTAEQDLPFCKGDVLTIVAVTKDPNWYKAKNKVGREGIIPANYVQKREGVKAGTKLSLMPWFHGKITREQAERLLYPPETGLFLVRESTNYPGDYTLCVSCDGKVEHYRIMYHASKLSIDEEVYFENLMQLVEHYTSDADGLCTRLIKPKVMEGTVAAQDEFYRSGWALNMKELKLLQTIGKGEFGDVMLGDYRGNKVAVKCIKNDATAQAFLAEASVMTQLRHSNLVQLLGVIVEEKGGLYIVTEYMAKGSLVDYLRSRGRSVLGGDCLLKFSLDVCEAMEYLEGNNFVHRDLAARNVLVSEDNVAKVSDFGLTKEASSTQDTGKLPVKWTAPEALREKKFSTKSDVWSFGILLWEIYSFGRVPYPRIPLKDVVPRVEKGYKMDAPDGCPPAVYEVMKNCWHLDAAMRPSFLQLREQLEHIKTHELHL

Row | residual activity (Homo sapiens [1]) | residual activity [2] | residual activity [3] | residual activity [4] | residual activity [5] | IC50 [6] | residual activity [7] | residual activity [8] | residual activity (Homo sapiens [9]) | residual activity [10] | residual activity [11] | residual activity [12] | residual activity [13] | residual activity [14] | residual activity [15] | residual activity [16] | SMILES
1 | 120% | 76% | 107% | 94% | 105% | 1.4 µM | 113% | 96% | 94% | 99% | 84% | 72% | 4% | 97% | 68% | 95% | CN(C)c1nc2ccc1CCCn1cc(c3ccccc31)C1=C(C(=O)NC1=O)c1cn(c3ccccc13)CC2
2 | 80% | 93% | 76% | 96% | 101% | 2.4 µM | 103% | 107% | 100% | 105% | 37% | 83% | 3% | 86% | 74% | 133% | CN(C)c1cc2cc(n1)CCCn1cc(c3ccccc31)C1=C(C(=O)NC1=O)c1cn(c3ccccc13)CCC2
3 | 88% | 91% | 87% | 108% | 110% | 1.2 µM | 115% | 103% | 96% | 99% | 42% | 93% | 4% | 99% | 82% | 125% | O=C1NC(=O)C2=C1c1cn(c3ccccc13)CCCc1cc(nc(N3CCCC3)c1)CCCn1cc2c2ccccc21
4 | 88% | – | 78% | 104% | 106% | 2.2 µM | 121% | 102% | 101% | 104% | 106% | 97% | 9% | 110% | 83% | 129% | O=C1NC(=O)C2=C1c1cn(c3ccccc13)CCCc1ccc(c(N3CCCC3)n1)CCCn1cc2c2ccccc21
